Legend:
Type in all cases: functional
[1] = tested on: Staphylococcus epidermidis; assay: Antimicrobial activity against Staphylococcus epidermidis SW029 expressing icaA gene
[2] = tested on: Staphylococcus epidermidis; assay: Enhancement of biofilm formation Staphylococcus epidermidis SW061 expressing icaA gene at subinhibitory concentration by microtiter plate assay; parameters: scale not given: the % may be the effect or the level left
[3] = tested on: Staphylococcus epidermidis; assay: Enhancement of biofilm formation Staphylococcus epidermidis SW036 at subinhibitory concentration by microtiter plate assay; parameters: scale not given: the % may be the effect or the level left
[4] = tested on: Staphylococcus epidermidis; assay: Enhancement of biofilm formation Staphylococcus epidermidis SW067 expressing icaA gene at subinhibitory concentration by microtiter plate assay; parameters: scale not given: the % may be the effect or the level left
[5] = tested on: Staphylococcus epidermidis; assay: Enhancement of biofilm formation Staphylococcus epidermidis SW082 at subinhibitory concentration by microtiter plate assay; parameters: scale not given: the % may be the effect or the level left
[6] = tested on: Staphylococcus epidermidis; assay: Enhancement of biofilm formation Staphylococcus epidermidis SW099 at subinhibitory concentration by microtiter plate assay; parameters: scale not given: the % may be the effect or the level left
[7] = tested on: Staphylococcus epidermidis; assay: Enhancement of biofilm formation Staphylococcus epidermidis SW070 at subinhibitory concentration by microtiter plate assay; parameters: scale not given: the % may be the effect or the level left
[8] = tested on: Staphylococcus epidermidis; assay: Enhancement of biofilm formation Staphylococcus epidermidis SW126 expressing icaA gene at subinhibitory concentration by microtiter plate assay; parameters: scale not given: the % may be the effect or the level left
[9] = tested on: Staphylococcus epidermidis; assay: Enhancement of biofilm formation Staphylococcus epidermidis SW045 expressing icaA gene at subinhibitory concentration by microtiter plate assay; parameters: scale not given: the % may be the effect or the level left
[10] = tested on: Staphylococcus epidermidis; assay: Enhancement of biofilm formation Staphylococcus epidermidis ATCC 35984 expressing icaA gene at subinhibitory concentration by microtiter plate assay; parameters: scale not given: the % may be the effect or the level left
[11] = tested on: Staphylococcus epidermidis; assay: Enhancement of biofilm formation Staphylococcus epidermidis SW120 at subinhibitory concentration by microtiter plate assay; parameters: scale not given: the % may be the effect or the level left
[12] = tested on: Staphylococcus epidermidis; assay: Enhancement of biofilm formation Staphylococcus epidermidis SW058 expressing icaA gene at subinhibitory concentration by microtiter plate assay; parameters: scale not given: the % may be the effect or the level left
[13] = tested on: Staphylococcus epidermidis; assay: Enhancement of biofilm formation Staphylococcus epidermidis SW071 at subinhibitory concentration by microtiter plate assay; parameters: scale not given: the % may be the effect or the level left
[14] = tested on: Staphylococcus epidermidis; assay: Antimicrobial activity against Staphylococcus epidermidis SW027 expressing icaA gene assessed as enhancement of biofilm formation at subinhibitory concentration by microtiter plate assay; parameters: scale not given: the % may be the effect or the level left
[15] = tested on: Staphylococcus epidermidis; assay: Enhancement of biofilm formation Staphylococcus epidermidis SW029 expressing icaA gene at subinhibitory concentration by microtiter plate assay; parameters: scale not given: the % may be the effect or the level left
[16] = tested on: Staphylococcus epidermidis; assay: Antimicrobial activity against Staphylococcus epidermidis SW036
[17] = tested on: Staphylococcus epidermidis; assay: Enhancement of biofilm formation Staphylococcus epidermidis SW104 expressing icaA gene at subinhibitory concentration by microtiter plate assay; parameters: scale not given: the % may be the effect or the level left
[18] = tested on: Staphylococcus epidermidis; assay: Enhancement of biofilm formation Staphylococcus epidermidis SW021 at subinhibitory concentration by microtiter plate assay; parameters: scale not given: the % may be the effect or the level left
[19] = tested on: Staphylococcus epidermidis; assay: Enhancement of biofilm formation Staphylococcus epidermidis SW085 expressing icaA gene at subinhibitory concentration by microtiter plate assay; parameters: scale not given: the % may be the effect or the level left
[20] = tested on: Staphylococcus epidermidis; assay: Enhancement of biofilm formation Staphylococcus epidermidis SW015 at subinhibitory concentration by microtiter plate assay; parameters: scale not given: the % may be the effect or the level left
[21] = tested on: Staphylococcus epidermidis; assay: Enhancement of biofilm formation Staphylococcus epidermidis SW032 expressing icaA gene at subinhibitory concentration by microtiter plate assay; parameters: scale not given: the % may be the effect or the level left
[22] = tested on: Staphylococcus epidermidis; assay: Enhancement of biofilm formation Staphylococcus epidermidis SW098 expressing icaA gene at subinhibitory concentration by microtiter plate assay; parameters: scale not given: the % may be the effect or the level left
[23] = tested on: Staphylococcus epidermidis; assay: Enhancement of biofilm formation Staphylococcus epidermidis SW088 at subinhibitory concentration by microtiter plate assay; parameters: scale not given: the % may be the effect or the level left
[24] = tested on: Staphylococcus epidermidis; assay: Enhancement of biofilm formation Staphylococcus epidermidis SW115 at subinhibitory concentration by microtiter plate assay; parameters: scale not given: the % may be the effect or the level left

CC[C@H]1OC(=O)[C@H](C)[C@@H](O[C@H]2C[C@@](C)(OC)[C@@H](O)[C@H](C)O2)[C@H](C)[C@@H](O[C@@H]2O[C@H](C)C[C@H](N(C)C)[C@H]2O)[C@](C)(O)C[C@@H](C)CN(C)[C@H](C)[C@@H](O)[C@]1(C)O [AZITHROMYCIN]
MIC [1]: > 128 µg/mL | Activity [2]: 58.4% | Activity [3]: 289.2% | Activity [4]: 128.8% | Activity [5]: 59.8% | Activity [6]: 47% | Activity [7]: 92.3% | Activity [8]: 56.4% | Activity [9]: 33.4% | Activity [10]: 2.5% | Activity [11]: 75.8% | Activity [12]: 37.6% | Activity [13]: 277.8% | Activity [14]: 49.1% | Activity [15]: 157.9% | MIC [16]: > 128 µg/mL | Activity [17]: 48.1% | Activity [18]: 39.8% | Activity [19]: 298.3% | Activity [20]: 57.3% | Activity [21]: 71.8% | Activity [22]: 104% | Activity [23]: 117.2% | Activity [24]: 184.3%

Reference: ChEMBL document CHEMBL1671687, “Enhancement of biofilm formation by subinhibitory concentrations of macrolides in icaADBC-positive and -negative clinical isolates of Staphylococcus epidermidis” (2010)
